Experimental data published in patent US20040152191A1 (priority 2001, published 2004).

Legend:
Type in all cases: cell-based
[1] = tested on: human hematopoietic CD34+ stem cells; test: Production of dendritic cells from human hematopoietic CD34+ stem cells, cell markers (Example 2); conditions: TNF-α 2.5 ng/ml or RU 41740 6.25 ng/ml from D0 to D5
Experimental: Purification: After Ficoll, the CD34+ represented 4.2% of the mononucleated cells (MNC).
After purification by positive selection with the MAC System procedure (Miltenyi Biotec) with beads coated with an anti-CD34 antibody, 90% of the cells are CD34+.
Culture Medium: RPMI containing 10% of FCS, 2% of penicillin/streptomycin, 1% of glutamine and 1% of sodium bicarbonate.
Culture in 2 ml wells with 5×10^5 cells per well. from D0 to D5: […] at 25 ng/ml, GM-CSF at 100 ng/ml and either TNF-α at 2.5 ng/ml […]
from D5 to D14: GM-CSF at 100 ng/ml
Duplication of the Cultures: -the cells are homogenized in the well, then 1 ml sample is taken and deposited in a fresh well. 1 ml of culture medium is then added to the fresh well and the old one, as well as GM-CSF as a function of the medium added.
A fluorescence-labelled anti-KLH primary antibody was used as control in order to be able to subtract the non-specific fluorescence of the signals obtained.

[2] = tested on: Langerhans cells; test: Differentiation of Langerhans cells from cord blood CD34+ cells (Example 4); conditions: D12; GM-CSF with TNF-α 2.5 ng/ml or RU 41740 10 μg/ml for 12 days
Source text: The stem cells are obtained after a passage of cord blood through a Ficoll gradient. The mononucleated CD34+ cells are purified by positive selection with an anti-CD34 monoclonal antibody (Immu 133.3, Immunotech Marseille, France). After purification, more than 90% of the cells are CD34+.
At the end of the culture period at D12, the cells are labelled with the anti-CD1a, CD14, Lag, E-cadherin, DR and DQ antibodies so as to identify the Langerhans cells which are Lag+, CD1a+, CD14−, DR+ and DQ+.

[3] = tested on: CD34+ cells of human cord blood; test: Production of dendritic cells from CD34+ cells of human cord blood, cell markers (Example 3); conditions: TNF-α 200 IU/ml or RU 41740 10 μg/ml until D6
Source text: The experimental conditions are similar to Example 2, except the fact that the cells are derived from cord blood:
Purification: After Ficoll, the CD34+ cells represent 0.83% of the mononucleated cells (MNC).
After purification by positive selection, 18.1% of CD34+ are obtained.
Duplication: on D6, D7,D8, D10 and D12.

TNF-α
CD1a, percentage of cells expressing the marker ([1]; D8): 8.7%
CD14, percentage of cells expressing the marker ([1]; D8): 40%
CD34, percentage of cells expressing the marker ([1]; D8): 0.7%
CD40, percentage of cells expressing the marker ([1]; D8): 44%
CD45, percentage of cells expressing the marker ([1]; D8): 96%
CD54, percentage of cells expressing the marker ([1]; D8): 33%
CD83, percentage of cells expressing the marker ([1]; D8): 0.5%
CD86, percentage of cells expressing the marker ([1]; D8): 13%
HLA-DR, percentage of cells expressing the marker ([1]; D8): 88%
CD1a, percentage of cells expressing the marker ([1]; D12): 8.4%
CD14, percentage of cells expressing the marker ([1]; D12): 63.2%
CD40, percentage of cells expressing the marker ([1]; D12): 64.3%
CD54, percentage of cells expressing the marker ([1]; D12): 61.8%
CD80, percentage of cells expressing the marker ([1]; D12): 5.3%
CD83, percentage of cells expressing the marker ([1]; D12): 1.3%
CD86, percentage of cells expressing the marker ([1]; D12): 7.4%
HLA-DQ, percentage of cells expressing the marker ([1]; D12): 54.1%
HLA-DR, percentage of cells expressing the marker ([1]; D12): 80.3%
CD1a, percentage of cells expressing the marker ([1]; D14): 10.3%
CD14, percentage of cells expressing the marker ([1]; D14): 54.1%
CD83, percentage of cells expressing the marker ([1]; D14): 0.8%
CD86, percentage of cells expressing the marker ([1]; D14): 2.2%
HLA-DR, percentage of cells expressing the marker ([1]; D14): 69.9%
CD1a+ DR+ cells [2]: 8%
Lag+ DR+ cells [2]: 5.2%
CD1a, percentage of labelled cells ([3]; D7): 4.41%
CD14, percentage of labelled cells ([3]; D7): 32%
CD16, percentage of labelled cells ([3]; D7): 2.24%
CD34, percentage of labelled cells ([3]; D7): 19.79%
CD45, percentage of labelled cells ([3]; D7): 99.84%
CD83, percentage of labelled cells ([3]; D7): 1.09%
CD86, percentage of labelled cells ([3]; D7): 11.61%
CD1a, percentage of labelled cells ([3]; D9): 23.75%
CD14, percentage of labelled cells ([3]; D9): 59.6%
CD16, percentage of labelled cells ([3]; D9): 2.16%
CD34, percentage of labelled cells ([3]; D9): 2.53%
CD45, percentage of labelled cells ([3]; D9): 99.96%
CD83, percentage of labelled cells ([3]; D9): 4.24%
CD86, percentage of labelled cells ([3]; D9): 22.23%
CD1a, percentage of labelled cells ([3]; D10): 20.63%
CD14, percentage of labelled cells ([3]; D10): 60%
CD16, percentage of labelled cells ([3]; D10): 2.11%
CD34, percentage of labelled cells ([3]; D10): 2.26%
CD45, percentage of labelled cells ([3]; D10): 99.97%
CD83, percentage of labelled cells ([3]; D10): 2.46%
CD86, percentage of labelled cells ([3]; D10): 9.23%
CD1a, percentage of labelled cells ([3]; D12): 27.9%
CD14, percentage of labelled cells ([3]; D12): 66.77%
CD34, percentage of labelled cells ([3]; D12): 0.69%
CD40, percentage of labelled cells ([3]; D12): 75.91%
CD45, percentage of labelled cells ([3]; D12): 99.85%
CD54, percentage of labelled cells ([3]; D12): 74.66%
CD83, percentage of labelled cells ([3]; D12): 0.71%
CD86, percentage of labelled cells ([3]; D12): 13.94%
HLA-DR, percentage of labelled cells ([3]; D12): 81.34%
CD1a, percentage of labelled cells ([3]; D13): 36.13%
CD14, percentage of labelled cells ([3]; D13): 57.73%
CD34, percentage of labelled cells ([3]; D13): 0.45%
CD40, percentage of labelled cells ([3]; D13): 63.35%
CD45, percentage of labelled cells ([3]; D13): 99.69%
CD54, percentage of labelled cells ([3]; D13): 61.7%
CD83, percentage of labelled cells ([3]; D13): 3.19%
CD86, percentage of labelled cells ([3]; D13): 12.78%
HLA-DR, percentage of labelled cells ([3]; D13): 73.04%
CD1a, percentage of labelled cells ([3]; D14): 34.2%
CD14, percentage of labelled cells ([3]; D14): 46.77%
CD34, percentage of labelled cells ([3]; D14): 0.38%
CD40, percentage of labelled cells ([3]; D14): 64.56%
CD45, percentage of labelled cells ([3]; D14): 99.93%
CD54, percentage of labelled cells ([3]; D14): 64.4%
CD83, percentage of labelled cells ([3]; D14): 1.22%
CD86, percentage of labelled cells ([3]; D14): 19.33%
HLA-DR, percentage of labelled cells ([3]; D14): 57.84%
